Source: patent US5026701A, “Morpholine compounds, compositions and use” (Adir et Compagnie, priority 1989, dated 1991)

Experiments:
mice [1] = test: Hypothermia with apomorphine (16 mg/kg i.p.); format: in vivo; conditions: 30 minutes before apomorphine 16 mg/kg i.p.
Experimental: The administration of a very strong dose of apomorphine (16 mg/kg i.p.) causes hypothermia of approximately 4° C. by the stimulation of dopaminergic heteroreceptors situated on the noradrenergic neurones. The so-created hypothermia is thus due to the failure of noradrenergic neurotransmission. The facilitating agents administered 30 minutes beforehand counteract this hypothermia.

mice [2] = test: Cerebral protecting effects: acute global hypoxia (barometric depressurization to 160 mbar), cerebral survival time; format: in vivo; conditions: 60 minutes before hypoxia
[3] = Lethal dose test with yohimbine (potentiation of yohimbine 30 mg/kg i.p.), percentage mortality; format: in vivo, mice; conditions: mouse, in vivo; yohimbine lethality potentiation, mice; read-out: relationship between the mean effective p.o. and i.p. doses (oral bioavailability)
Experimental: (§1) Male mice are administered yohimbine (α2 antagonist) by the intraperitoneal route at a dose of 30 mg/kg, a non-lethal dose which only causes the occurrence of hyperexcitability symptoms or convulsions. Any compound that facilitates noradrenergic neurotransmission potentiates the releasing effect of the yohimbine and brings about the death of the animals.
(§2) A percentage mortality is thus measured for each group of animals treated 30 minutes beforehand i.p. or 60 minutes beforehand p.o. with the compound examined.

mice [4] = test: Cerebral protecting effects: acute global hypoxia (barometric depressurization to 160 mbar), cerebral survival time; format: in vivo; conditions: 30 minutes before hypoxia; for increase in the survival time: male mice
Experimental: The cerebral survival time taken as the occurrence of the last respiratory gasp is measured in control animals and in animals that have received the compound under examination 30 minutes beforehand by the intraperitoneal route.

[5] = system: synaptosomal reuptake of noradrenaline (NAD); test: Synaptosomal reuptake of tritiated noradrenaline in vitro; format: biochemical; conditions: 10^-6 M, synaptosomes, versus control preparation
Experimental: This effect was examined in the […] by measuring the synaptosomal reuptake of noradrenaline (NAD). For this, a fraction of synaptosomes is placed in the presence of tritiated NAD with or without previous incubation with the compound examined.
A measurement of the radioactivity in the synaptosomal pellet makes it possible to calculate the quantity of NAD reuptaken naturally by neurone endings. A compound inhibiting the reuptake reduces the radioactivity measured and a percentage inhibition is measured by comparison with a control preparation.

mice [6] = test: Psycho-awakening effect: sodium barbital (270 mg/kg i.p.) induced narcosis duration; format: in vivo; conditions: 30 μmols/kg i.p.
Experimental: Male mice are administered sodium barbital by the i.p. route at a dose of 270 mg/kg. The duration of the narcosis so induced is compared between control animals and animals treated beforehand by the i.p. route with the compounds examined.

mice [7] = test: Hexobarbital (75 mg/kg i.p.) induced narcosis duration; format: in vivo
Experimental: This antagonism of barbital-induced narcosis reflects a psycho-awakening effect since no antagonism occurs when narcosis is induced with hexobarbital (75 mg/kg i.p.) (product of Example 2β:+20%; product of Example 1:+26%).

mice [8] = test: Lethal dose test with yohimbine (potentiation of yohimbine 30 mg/kg i.p.), percentage mortality; format: in vivo; conditions: 9 μmols/kg i.p., 30 minutes before yohimbine 30 mg/kg i.p.
Experimental: as §1, §2

Row | SMILES | inhibiting effect vis-a-vis hypothermia (mice [1]; 9 μmols/kg) | ratio of mean effective p.o. to i.p. dose [3] | increase in the survival time (mice [4]; 9 μmols/kg i.p.) | increase in the survival time (mice [4]; 30 μmols/kg i.p.) | increase in the survival time (mice [4]; 90 μmols/kg i.p.) | inhibition of the reuptake of NAD [5] [%] | inhibiting effect vis-a-vis hypothermia (mice [1]; 3 μmols/kg) | change in duration of narcosis with barbital (mice [6]) [%] | increase in the survival time (mice [4]; 3 μmols/kg i.p.) | further results
1 | Fc1ccc(OCC2CNCCO2)c2c1CCCN2 (racemic) [Example 2, R,S-5-fluoro-8-(2-morpholinylmethoxy)-1,2,3,4-tetrahydroquinoline] | -29% | – | – | – | – | – | – | – | – | –
2 | CS(=O)(=O)O.Fc1cc2c(c(OC[C@H]3CNCCO3)c1)NCCC2 [Example 1α, R-6-fluoro-8-(2-morpholinylmethoxy)-1,2,3,4-tetrahydroquinoline monomethanesulphonate] | – | 3.16 | +37% | +55% | +114% | – | – | – | – | increase in the survival time (mice [2]; 9 μmols/kg orally): 37%
3 | Fc1ccc(OC[C@@H]2CNCCO2)c2c1CCCN2 [Example 2β, S-5-fluoro-8-(2-morpholinylmethoxy)-1,2,3,4-tetrahydroquinoline monomethanesulphonate] | -21% | – | – | – | – | -58.9 | -16% | 40 | 21% | change in duration of narcosis induced with hexobarbital (mice [7]): +20%
4 | Fc1cc2c(c(OC[C@@H]3CNCCO3)c1)NCCC2 [Example 1β, S-6-fluoro-8-(2-morpholinylmethoxy)-1,2,3,4-tetrahydroquinoline monomethanesulphonate] | – | – | +42% | +62% | +108% | -55.4 | – | – | +21% | –
5 | Fc1cc2c(c(OCC3CNCCO3)c1)NCCC2 (racemic) [Example 1, R,S-6-fluoro-8-(2-morpholinylmethoxy)-1,2,3,4-tetrahydroquinoline] | -46% | – | – | – | – | – | -27% | -36 | – | change in duration of narcosis induced with hexobarbital (mice [7]): +26%
6 | Fc1ccc(OC[C@H]2CNCCO2)c2c1CCCN2 [Example 2α, R-5-fluoro-8-(2-morpholinylmethoxy)-1,2,3,4-tetrahydroquinoline monomethanesulphonate] | – | 1.77 | – | – | – | – | – | – | – | –
7 | c1cc2c(c(OCC3CNCCO3)c1)NCCC2 (racemic) [reference product, R,S-8-[(2-morpholinyl)methoxy]-1,2,3,4-tetrahydroquinoline, reference compound] | +0.5% | 4.25 | +17% | +42% | +87% | 33.6 | no effect | -20 | +5% | increase in the survival time (mice [2]; 40 μmols/kg orally): 31%; mortality (mice [8]): +20%; minimal effective dose (mice [4]; Mus musculus, ip, read-out: dose from which hypoxia is significantly counteracted (protecting effect obtained)): 9 µmol/kg
